Data set [1] concerns syncytia formation between Chinese hamster ovary cell expressing HXB2 envelope and HeLa-CD4-LTR-Beta-gal cells. How it is done:
In each instance, a blocking group (e.g., an acetyl group) was present at the N terminus and a CONH2 (amide) was present at the C-terminus.
Inhibition of cell/cell fusion (i.e., syncytia formation) was assayed by co-culturing Chinese hamster ovary cell expressing HXB2 envelope (K. Kozarsky, et al., J. Acquir. Immune. Defic. Syndr., 2:163 (1989) and the HeLa-CD4-LTR-Beta-gal cells (M. Emerman, NIH AIDS Reagent program) in the presence of varying concentration of peptide. When mixed, these cells form syncytia, or multi-nucleated cells, which express β-galactosidase. Approximately twenty hours after co-culturing the cells, the monolayers were stained with 5-bromo-4-chloro-3-indolyl-β-D-galactoside to visualize the syncytia. The syncytia are visualized with a microscope and counted manually (a syncytia is scored as a fused cell containing three or more nuclei). The IC50 was calculated from fitting the data to a Langmuir equation [y=k/(1+[peptide]/IC50)+x], where y=number of syncytia and k and x are scaling constants.

The subject of data set [2] is recombinant luciferase-expressing HIV-1. Type of data set: cell-based. Particulars: for IC50: recombinant luciferase-expressing HIV-1, mean ± standard error, triplicate, read-out: IC50 viral entry. The method, then:
The potency of C34 peptides in inhibiting viral infection and the HIV-1 infection inhibitory activity of the D-peptides were assayed using recombinant luciferase-expressing HIV-1 (Chen, B. K. et al., J. Virol., 68:654 (1994); Malashkevich, V. N., et al., Proc. Natl. Acad. Sci., USA, 95:9134 (1998)).
(§1) The apparent melting temperatures (Tm) were estimated from the thermal dependence of the CD signal at 222 nm. Inhibition of viral entry was measured in a cell-culture infection assay using recombinant luciferase-expressing HIV-1. Inhibition of cell-cell fusion was measured in a syncytium assay. The means and standard errors are from triplicate trials.

Data set [3] deals with T1, N36 peptide (Human immunodeficiency virus type 1 group M subtype B, UniProt P04578).
T1 construct: made in house; host or cells: chemical peptide synthesis
Type of data set: physicochemical, HIV-1. Particulars: for Tm (apparent melting temperature) of N36/C34 complex: C34 peptide 10 μM + N36 10 μM, phosphate-buffered saline pH 7.0, CD signal at 222 nm; for mean residue ellipticity [θ]222 of N36/C34 complex: CD at 222 nm, 0° C., PBS pH 7.0. The method, then: CD measurements were performed in phosphate-buffered saline (50 mM sodium phosphate, 150 mM NaCl, pH 7.0) with an Aviv Model 62DS spectrometer as previously described (M. Lu, S. C. Blacklow, P. S. Kim, Nat. Struct. Biol., 2:1075 (1995)). The apparent melting temperature of each complex was estimated from the maximum of the first derivative of [θ]222 with respect to temperature.
as §1

Data set [4] concerns hydrophobic pocket of IQN17 (gp41). Put plainly: 1H NMR assay of binding to the IQN17 hydrophobic pocket. Details: species or system HIV-1. Particulars: 1:1 complex with IQN17, 25° C., 100 mM NaCl, 50 mM sodium phosphate pH 7.5, D2O. The text has this:
NMR experiments were used to assay the binding of each D-peptide to IQN17. The single tryptophan residue of IQN17 (denoted Trp-571) provides an excellent probe of specific binding to the hydrophobic pocket of gp41. […] To test a compound for binding to the gp41 pocket, two one-dimensional ^1H NMR measurements were made on samples in deuterated buffers. First, a reference (control) spectrum of IQN17 was taken, identifying the Trp571 chemical shifts in the unbound form. A second spectrum was acquired on a sample containing both IQN17 and the compound in question. An optional third spectrum of the D-peptide (or other small molecule, or mix of molecules) was also taken. ^1H NMR experiments were performed on a Bruker AMX 500 spectrometer. Data was processed in Felix 98.0 (MSI) on Silicon Graphics computers, and all spectra were referenced to DSS. All experiments were performed at 25° C. in 100 mM NaCl, 50 mM sodium phosphate (pH 7.5). All buffers used were >99.7% D2O, to remove overlapping resonances from exchangeable backbone and side chain protons. Solute concentrations ranged from 0.3-1.0 mM for individual peptides, 0.8-1.0 mM for 1:1 commplexes of IQN17 with each D-peptide.
Simple binding of two or more components is expected to result both in broader peaks (due to the increased size of the complex) and in changes in chemical shifts (due to the different chemical environments experienced by nuclei in free and bound forms). Specific binding to the hydrophobic pocket is indicated by a change in the Trp-571 chemical shifts, as well as by a broadening of peaks. Binding can also be indicated by similar changes in the chemical shifts and peak widths of the molecule (peptides and small organic molecules, for example) assayed. […] All IQN17/D-peptide complexes studied gave similar results, though varying in the degree of chemical shift dispersion (FIG. 9B). Thus, binding was indicated in all cases.
To confirm that the strongly upfield-shifted peaks all correspond to a single sidechain (almost certainly Trp-571), two-dimensional NMR (TOCSY) experiments were performed on each of the IQN17/D-peptide complexes. As expected, the TOCSY experiments indicate that in each complex, the strongly upfield-shifted resonances all belong to the same aromatic side chain, identified as a group of four scalar-coupled protons. For several of the complexes studied, NOESY experiments also indicate contact between this sidechain and other (unassigned) aromatic groups, as expected from the IQN17/D10pep1 structure. Not all of the potential NOE crosspeaks could be resolved, due to intense spectral overlap in the 6.8-7.6 ppm region. 2D NOESY and TOCSY experiments as described in J. Cavanaugh, W. J. Fairbrother, A. G. Palmer, N. J. Skelton, Protein NMR Spectroscopy: Principles and Practice (1996) were performed on samples of IQN17 and of each complex, with mixing times ranging between 30-90 ms (NOESY) and 30-70 ms (TOCSY). Spectral widths of 11,111 Hz and 5555 Hz were used in the acquisition (t2) and indirect (t1) dimensions, respectively. TOCSY experiments employed the DIPSI-2rc mixing sequence (J. Cavanaugh, M. Rance, J. Magn. Reson. Serv. A., 105:328 (1993)).

The mark [5] stands for this setting: read-out: IC50 cell fusion, syncytium assay, mean ± standard error, triplicate.

Broadly, the IC50 is the concentration needed to halve the response being measured.

Where two headings read alike, the source gives them in different places. Positions of bridges follow the written chain, without caps; N, C: chain ends. Non-standard residues stand in square brackets, D forms with d.

Consider `CC(=O)N[C@H](CCCCN)C(=O)N[C@H](CCCCN)C(=O)NCC(=O)N[C@H](C)C(=O)N[C@@H]1CSSC[C@H](C(=O)N[C@H](C)C(=O)N[C@H](C)C(N)=O)NC(=O)[C@@H](CC(C)C)NC(=O)[C@@H](Cc2c[nH]c3ccccc23)NC(=O)[C@@H](C)NC(=O)[C@@H](Cc2c[nH]c3ccccc23)NC(=O)[C@@H](CCC(=O)O)NC(=O)[C@@H](Cc2c[nH]c3ccccc23)NC(=O)CNC(=O)[C@@H](CC(C)C)NC(=O)[C@@H](CC(C)C)NC(=O)[C@@H](CCC(=O)O)NC1=O` [Peptide D10pep5], for which the half-maximal inhibitory concentration (IC50) in data set [1] (read-out: IC50 syncytia formation, D-peptide, N-terminal acetyl, C-terminal amide) is approximately 6000 nM. In data set [2] (infectivity assay), the “inhibition of infection of cells” value was “inhibit infection of cells”.

Regarding `CC[C@H](NC(=O)[C@H](CCC(=O)O)NC(=O)[C@H](CCSC)NC(=O)[C@H](Cc1c[nH]c2ccccc12)NC(C)=O)C(=O)N[C@@H](CC(=O)O)C(=O)N[C@@H](CCCNC(=N)N)C(=O)N[C@@H](CCC(=O)O)C(=O)N[C@H](C(=O)N[C@@H](CC(N)=O)C(=O)N[C@@H](CC(N)=O)C(=O)N[C@@H](Cc1ccc(O)cc1)C(=O)N[C@H](C(=O)N[C@@H](CO)C(=O)N[C@@H](CC(C)C)C(=O)N[C@H](C(=O)N[C@@H](Cc1c[nH]cn1)C(=O)N[C@@H](CO)C(=O)N[C@@H](CC(C)C)C(=O)N[C@H](C(=O)N[C@@H](CCC(=O)O)C(=O)N[C@@H](CCC(=O)O)C(=O)N[C@@H](CO)C(=O)N[C@@H](CCC(N)=O)C(=O)N[C@@H](CC(N)=O)C(=O)N[C@@H](CCC(N)=O)C(=O)N[C@@H](CCC(N)=O)C(=O)N[C@@H](CCC(=O)O)C(=O)N[C@@H](CCCCN)C(=O)N[C@@H](CC(N)=O)C(=O)N[C@@H](CCC(=O)O)C(=O)N[C@@H](CCC(N)=O)C(=O)N[C@@H](CCC(=O)O)C(=O)N[C@@H](CC(C)C)C(=O)N[C@@H](CC(C)C)C(N)=O)[C@@H](C)CC)[C@@H](C)CC)[C@@H](C)O)[C@@H](C)CC` [Trp^631→Abu], in data set [3], the “Tm (apparent melting temperature) of N36/C34 complex” value (“Tm (apparent melting temperature)” for short) worked out at 43 °C and the “mean residue ellipticity [θ]222 of N36/C34 complex” value (“mean residue ellipticity” below) is listed as −23.2 10^3 deg cm^2 dmol^−1.

In the case of `CC[C@H](C)[C@H](NC(=O)[C@H](CC(C)C)NC(=O)[C@H](CO)NC(=O)[C@H](Cc1c[nH]cn1)NC(=O)[C@@H](NC(=O)[C@H](CC(C)C)NC(=O)[C@H](CO)NC(=O)[C@@H](NC(=O)[C@H](Cc1ccc(O)cc1)NC(=O)[C@H](CC(N)=O)NC(=O)[C@H](CC(N)=O)NC(=O)[C@@H](NC(=O)[C@H](CCC(=O)O)NC(=O)[C@H](CCCNC(=N)N)NC(=O)[C@H](CC(=O)O)NC(=O)[C@H](C)NC(=O)[C@H](CCC(=O)O)NC(=O)[C@H](CCSC)NC(=O)[C@H](Cc1c[nH]c2ccccc12)NC(C)=O)[C@@H](C)CC)[C@@H](C)O)[C@@H](C)CC)C(=O)N[C@@H](CCC(=O)O)C(=O)N[C@@H](CCC(=O)O)C(=O)N[C@@H](CO)C(=O)N[C@@H](CCC(N)=O)C(=O)N[C@@H](CC(N)=O)C(=O)N[C@@H](CCC(N)=O)C(=O)N[C@@H](CCC(N)=O)C(=O)N[C@@H](CCC(=O)O)C(=O)N[C@@H](CCCCN)C(=O)N[C@@H](CC(N)=O)C(=O)N[C@@H](CCC(=O)O)C(=O)N[C@@H](CCC(N)=O)C(=O)N[C@@H](CCC(=O)O)C(=O)N[C@@H](CC(C)C)C(=O)N[C@@H](CC(C)C)C(N)=O` [Trp^631→Ala], in data set [3], the “Tm (apparent melting temperature)” value was 37 °C and the “mean residue ellipticity” value is reported as −24.9 10^3 deg cm^2 dmol^−1. Further, in data set [2], the IC50 is 40 ± 4.3 nM.

Consider “Ac-GACDLKAKEWFWLCAA-CONH2 (Ac-G[dA][dC][dD][dL][dK][dA][dK][dE][dW][dF][dW][dL][dC][dA][dA]-NH2; disulfide 3-14 (inferred)) [Peptide D10pep4]”, for which the “binding to the hydrophobic pocket of IQN17” value in data set [4] is on record as “contact the pocket with very similar binding interfaces”.

As for “Ac-KKKKGACELLGWEWAWLCAA-CONH2 (Ac-KKKKG[dA][dC][dE][dL][dL]G[dW][dE][dW][dA][dW][dL][dC][dA][dA]-NH2; disulfide 7-18 (inferred); not fully specified (residues 1, 2, 3, 4); printed as Ac-KKKKGACELLGWEWAWLCAA-CONH2) [Peptide D10pep5a]”, the “IC50 for inhibition of syncytia formation relative to parent peptide without the added lysines” value in data set [1] (two additional N-terminal lysines vs parent D-peptide) is reported as “approximately 2 fold”.

Consider “Ac-WMEFDREINNYTSLIHSLIEESQNQQEKNEQELL-NH2 [Trp^631→Phe]”, for which, in data set [3], the “Tm (apparent melting temperature)” value was found to be 59 °C and the “mean residue ellipticity” value is −26.3 10^3 deg cm^2 dmol^−1. For the same compound, in data set [1] (setting [5]), the IC50 is 1.6 ± 0.05 nM. Moreover, the concentration for half-maximal inhibition (IC50) in data set [2] was 3.61 ± 0.8 nM.

Take “Ac-WMEGDREINNYTSLIHSLIEESQNQQEKNEQELL-NH2 [Trp^631→Gly]”: in data set [3], the “Tm (apparent melting temperature)” value was determined as 35 °C and the “mean residue ellipticity” value is on record as 17.1 10^3 deg cm^2 dmol^−1. In addition, in data set [1] (setting [5]), the IC50 was found to be 25 ± 3.8 nM. Further, the IC50 in data set [2] stood at 38 ± 6.1 nM.

Take “Ac-WMELDREINNYTSLIHSLIEESQNQQEKNEQELL-NH2 [Trp^631→Leu]”: in data set [3], the “Tm (apparent melting temperature)” value was 50 °C and the “mean residue ellipticity” value is −26.7 10^3 deg cm^2 dmol^−1. The 50% inhibitory concentration (IC50) in data set [1] (setting [5]) worked out at 3.2 ± 0.1 nM. Further, the IC50 in data set [2] is 5.3 ± 1 nM.

Regarding “Ac-WMEVDREINNYTSLIHSLIEESQNQQEKNEQELL-NH2 [Trp^631→Val]”, in data set [3], the “Tm (apparent melting temperature)” value came out at 43 °C and the “mean residue ellipticity” value is listed as −23.9 10^3 deg cm^2 dmol^−1. Further, the IC50 in data set [1] (setting [5]) was determined as 4.5 ± 0.09 nM. For the same compound, in data set [2], the IC50 turned out to be 13 ± 12.8 nM.

Turning to “Ac-WMEWDAEINNYTSLIHSLIEESQNQQEKNEQELL-NH2 [Arg^633→Ala]”, the “Tm (apparent melting temperature)” value in data set [3] is 65 °C. The “mean residue ellipticity” value in data set [3] was −30.7 10^3 deg cm^2 dmol^−1. In addition, the IC50 in data set [1] (setting [5]) was determined as 0.76 ± 0.07 nM; in data set [2], 2.6 ± 0.89 nM. In addition, in data set [2] (HIV-1 viral entry and syncytium assays, vs wildtype C34), the “effect of mutation on inhibitory activity of C34” value is “little effect”.

On to “Ac-WMEWDREANNYTSLIHSLIEESQNQQEKNEQELL-NH2 [Ile^635→Ala]”, for which, in data set [3], the “Tm (apparent melting temperature)” value came out at 55 °C and the “mean residue ellipticity” value is given as −25.9 10^3 deg cm^2 dmol^−1. The IC50 in data set [1] (setting [5]) turned out to be 0.96 ± 0.12 nM. Further, the “decrease in inhibitory activity relative to wildtype C34” value in data set [2] (HIV-1 viral entry and syncytium assays) is recorded as approximately 2 fold. Besides, in data set [2], the 50% inhibitory concentration (IC50) worked out at 4.1 ± 0.91 nM.

The values above are taken from patent publication US6841657B2, “Inhibitors of HIV membrane fusion” (priority 1998, dated 2005).
